Test results: patent publication US11331299B2, “Medicinal use of serrulatane diterpenes” (The University of Sydney, priority 2016, dated 2022)
Read-outs that look alike come from different tables or passages of the source.

System: 280 human cancer cell lines
Test: OncoPanel cell proliferation assay (10-day)
Format: cell-based
Conditions: Homo sapiens; for GI50: read-out: Cell Count GI50; for IC50: read-out: Cell Count IC50; for EC50: read-out: Cell Count EC50
[1] = KHOS-240S, Soft Tissue - Osteosarcoma
[2] = ME-180, ME-180, Female GU - Ovary
[3] = MG-63, MG-63, Soft Tissue - Osteosarcoma
[4] = MHH-PREB-1, MHH-PREB-1, Leukemia
[5] = MIA PaCa-2, Mia PaCa-2, Pancreas
[6] = MS751, MS751, Female GU - Ovary
[7] = Malme-3M, MALME3M, Skin (Melanoma)

CC(C)=CCC[C@@H]1C(O)Oc2c(C)cc(O)c3c2[C@H]1CC[C@H]3C (some centres unmarked) [Compound 2, 5,18-epoxyserrulat-14-en-8,18-diol]
GI50 [1]: 4.58 µM | IC50 [1]: 4.59 µM | EC50 (KLE, Female GU - Uterus): 26.3 µM | GI50 (KLE, Female GU - Uterus): 20.5 µM | IC50 (KLE, Female GU - Uterus): 26.3 µM | EC50 (KPL-1, KPL-1, Breast): 4.7 µM | GI50 (KPL-1, KPL-1, Breast): 4.7 µM | IC50 (KPL-1, KPL-1, Breast): 4.73 µM | EC50 (KU812, KU812, Leukemia): 6.52 µM | GI50 (KU812, KU812, Leukemia): 5.66 µM | IC50 (KU812, KU812, Leukemia): 6.52 µM | EC50 (L-428, L-428, Lymphoma): 8.87 µM | GI50 (L-428, L-428, Lymphoma): 8.83 µM | IC50 (L-428, L-428, Lymphoma): 8.87 µM | EC50 (LNCaP, Prostate): 0.86 µM | GI50 (LNCaP, Prostate): 0.28 µM | IC50 (LNCaP, Prostate): 0.86 µM | EC50 (LS-123, LS123, Colon): 6.57 µM | GI50 (LS-123, LS123, Colon): 13.4 µM | IC50 (LS-123, LS123, Colon): 18.4 µM | EC50 (LS-411N, LS411N, Colon): 23.9 µM | GI50 (LS-411N, LS411N, Colon): 23.4 µM | IC50 (LS-411N, LS411N, Colon): 23.9 µM | EC50 (LS-1034, LS1034, Colon): 12.7 µM | GI50 (LS-1034, LS1034, Colon): 12 µM | IC50 (LS-1034, LS1034, Colon): 12.7 µM | EC50 (M059J, CNS - Glioma): 9.98 µM | GI50 (M059J, CNS - Glioma): 14.2 µM | IC50 (M059J, CNS - Glioma): 15.8 µM | EC50 (MC116, MC116, Lymphoma): 13.8 µM | GI50 (MC116, MC116, Lymphoma): 13.8 µM | IC50 (MC116, MC116, Lymphoma): 13.8 µM | EC50 (MC-IXC, CNS - Neuroblastoma): 16.9 µM | GI50 (MC-IXC, CNS - Neuroblastoma): 16.9 µM | IC50 (MC-IXC, CNS - Neuroblastoma): 16.9 µM | EC50 (MCF7, MCF7, Breast): 10.4 µM | GI50 (MCF7, MCF7, Breast): 9.96 µM | IC50 (MCF7, MCF7, Breast): 10.4 µM | EC50 (MDA-MB-231, MDA MB 231, Breast): 4.39 µM | GI50 (MDA-MB-231, MDA MB 231, Breast): 4.36 µM | IC50 (MDA-MB-231, MDA MB 231, Breast): 4.39 µM | EC50 (MDA-MB-436, MDA-MB-436, Breast): 9.72 µM | GI50 (MDA-MB-436, MDA-MB-436, Breast): 9.73 µM | IC50 (MDA-MB-436, MDA-MB-436, Breast): 9.77 µM | EC50 (MDA-MB-453, MDA MB 453, Breast): 3.68 µM | GI50 (MDA-MB-453, MDA MB 453, Breast): 3.65 µM | IC50 (MDA-MB-453, MDA MB 453, Breast): 3.69 µM | EC50 (MDA-MB-468, MDA MB 468, Breast): 8.07 µM | GI50 (MDA-MB-468, MDA MB 468, Breast): 8 µM | IC50 (MDA-MB-468, MDA MB 468, Breast): 8.08 µM | EC50 [2]: > 30 µM | GI50 [2]: > 30 µM | IC50 [2]: > 30 µM | EC50 (MEG-01, MEG01, Leukemia): 13.8 µM | GI50 (MEG-01, MEG01, Leukemia): 13.7 µM | IC50 (MEG-01, MEG01, Leukemia): 13.8 µM | EC50 (MES-SA, Soft Tissue - Sarcoma): 9.26 µM | GI50 (MES-SA, Soft Tissue - Sarcoma): 9.22 µM | IC50 (MES-SA, Soft Tissue - Sarcoma): 9.26 µM | EC50 [3]: > 30 µM | GI50 [3]: > 30 µM | IC50 [3]: > 30 µM | EC50 [4]: 7.85 µM | GI50 [4]: 7.85 µM | IC50 [4]: 7.85 µM | EC50 [5]: 16.3 µM | GI50 [5]: 16.2 µM | IC50 [5]: 16.3 µM | EC50 (MOLT-3, MOLT-3, Leukemia): 1.27 µM | GI50 (MOLT-3, MOLT-3, Leukemia): 1.26 µM | IC50 (MOLT-3, MOLT-3, Leukemia): 1.27 µM | EC50 (MOLT-16, MOLT-16, Leukemia): 13.3 µM | GI50 (MOLT-16, MOLT-16, Leukemia): 13.3 µM | IC50 (MOLT-16, MOLT-16, Leukemia): 13.3 µM | EC50 [6]: 7.55 µM | GI50 [6]: 8.72 µM | IC50 [6]: 8.78 µM | EC50 (MT-3, Colon): 16.9 µM | GI50 (MT-3, Colon): 16.8 µM | IC50 (MT-3, Colon): 16.9 µM | EC50 (MV4-11, MV-4-11, Leukemia): 8.56 µM | GI50 (MV4-11, MV-4-11, Leukemia): 8.52 µM | IC50 (MV4-11, MV-4-11, Leukemia): 8.56 µM | EC50 (MX1, Leukemia): 10.8 µM | GI50 (MX1, Leukemia): 10.8 µM | IC50 (MX1, Leukemia): 10.8 µM | EC50 [7]: 19.8 µM | GI50 [7]: 17.3 µM | IC50 [7]: 19.8 µM | EC50 (MeWo, Skin (Melanoma)): 9.45 µM | GI50 (MeWo, Skin (Melanoma)): 9.91 µM | IC50 (MeWo, Skin (Melanoma)): 9.97 µM | EC50 (NALM-6, NALM-6, Leukemia): 1.67 µM | GI50 (NALM-6, NALM-6, Leukemia): 1.68 µM | IC50 (NALM-6, NALM-6, Leukemia): 1.68 µM | EC50 (NAMALWA, Lymphoma): 5.71 µM | GI50 (NAMALWA, Lymphoma): 5.7 µM | IC50 (NAMALWA, Lymphoma): 5.71 µM | EC50 (NCI-H69, NCI-H69, Lung - SCLC): 16.2 µM | GI50 (NCI-H69, NCI-H69, Lung - SCLC): 14.9 µM | IC50 (NCI-H69, NCI-H69, Lung - SCLC): 16.2 µM
